Experimental data: US5646316A, “Bile acid inhibitors of metalloproteinase enzymes” (OsteoArthritis Sciences, Inc., priority 1995, dated 1997)
Read-outs that look alike come from different tables or passages of the source.

Experiments:
Assay type in all cases: biochemical
[1] = target: stromelysin (Homo sapiens, UniProt P08254); test: Assay of Stromelysin Inhibition Activity (fluorogenic substrate hydrolysis); details: for IC50: 60 minutes incubation; for inhibition at 10 µM: read-out: percent inhibition of stromelysin
stromelysin, sequence (P08254 100-477): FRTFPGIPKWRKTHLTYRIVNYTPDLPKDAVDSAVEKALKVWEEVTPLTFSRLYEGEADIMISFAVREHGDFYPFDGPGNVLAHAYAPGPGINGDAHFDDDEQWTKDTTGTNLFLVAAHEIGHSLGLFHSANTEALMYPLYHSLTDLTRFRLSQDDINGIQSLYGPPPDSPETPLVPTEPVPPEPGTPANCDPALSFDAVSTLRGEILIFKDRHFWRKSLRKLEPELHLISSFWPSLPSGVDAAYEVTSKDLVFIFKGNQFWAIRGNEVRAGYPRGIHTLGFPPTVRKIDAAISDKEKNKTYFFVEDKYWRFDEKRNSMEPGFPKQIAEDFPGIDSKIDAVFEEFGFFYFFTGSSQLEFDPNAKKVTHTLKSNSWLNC
Description: (§1) Stromelysin was first activated by trypsin. This was done by preparing a reaction mixture in B-150 (B-150 consists of 150 mM NaCl, 20 mM Tris at pH 7.8 and 0.02% sodium azide) containing a final concentration of 4 μg/mL trypsin, 1.48 μg/mL of stromelysin, and 3.15 mM CaCl2. The reaction was incubated for 30 minutes at 37° C. and then quenched by adding soybean trypsin inhibitor to a final concentration of 43.6 μg/mL. ZnCl2 was added to the reaction mixture for a total concentration of 0.24 μM.
(§2) Following preparation of the solution of activated stromelysin, assay solutions were prepared for each inhibitor being tested. A control was also prepared. First, […] of activated stromelysin (about 45 μL from the solution of activated stromelysin) were aliquotted per assay tube. A 2.5 mM solution in 100% dimethyl sulfoxide (DMSO) was prepared for each inhibitor being tested and 1 μL from each inhibitor solution was added to one of the assay tubes. In addition, 1 μL of 100% DMSO was added to the control assay tube. All assay tubes were then pre-incubated for 5 minutes.
(§3) 5 μL of a previously prepared 50 μM solution of substrate in 15% DMSO were added to each assay tube. The substrate was a methoxycumarin developed by Knight et al. FEBS Lett. 296:263-66 (1992). The tubes were then incubated for 60 minutes, at which time the reaction was stopped with the addition of 750 μL of 0.1M NaAc pH 4.0 buffer.
(§4) Substrate hydrolysis was assessed by fluorescence using a slit width of 10:10, excitation at 328 nm and emission at 393 nm. The results of these assays are listed in Table I as percent inhibition at 10 μM of the bile acid provided compound tested or as the IC50.

[2] = system: collagenase; test: Assay of Collagenase Inhibition Activity; details: at 10 μM of compound; 45 minutes at 37° C.
Description: as §1, §2, §3, §4
(§5) The assay procedure for collagenase was the same as described in Example 13 for stromelysin except that the trypsin activation was performed for 45 minutes. In addition, the incubation of the assay tubes at 37° C. was only for 45 minutes, and the final enzyme concentration is 6 nm. The results of these assays are provided in Table I as percent inhibition at 10 μM of the compound tested.

[3] = target: T1, gelatinase (72 (Kd) (Homo sapiens, UniProt P08253)); test: Assay of Gelatinase Inhibition Activity (72 Kd gelatinase); details: 60 minutes at 37° C.; for inhibition at 10 µM: at 10 μM of compound, read-out: percent inhibition of gelatinase
T1 sequence (P08253 110-660): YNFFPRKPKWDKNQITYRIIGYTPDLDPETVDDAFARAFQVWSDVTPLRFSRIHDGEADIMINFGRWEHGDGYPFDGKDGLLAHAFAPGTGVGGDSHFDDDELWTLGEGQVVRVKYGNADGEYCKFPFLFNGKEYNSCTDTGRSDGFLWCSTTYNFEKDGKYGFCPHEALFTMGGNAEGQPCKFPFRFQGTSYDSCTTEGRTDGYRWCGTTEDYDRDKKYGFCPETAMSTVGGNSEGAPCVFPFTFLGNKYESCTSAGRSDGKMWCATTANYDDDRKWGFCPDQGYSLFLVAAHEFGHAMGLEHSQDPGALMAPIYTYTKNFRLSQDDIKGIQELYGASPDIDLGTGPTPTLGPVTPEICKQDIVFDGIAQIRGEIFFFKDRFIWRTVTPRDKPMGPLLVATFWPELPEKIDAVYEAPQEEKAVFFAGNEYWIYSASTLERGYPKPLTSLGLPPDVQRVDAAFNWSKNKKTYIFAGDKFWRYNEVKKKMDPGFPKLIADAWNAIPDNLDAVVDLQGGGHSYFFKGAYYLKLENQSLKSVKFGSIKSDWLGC
Description: as §1, §2, §3, §4
as §5, with “gelatinase (72 (Kd)” for “collagenase”, “60” for “45”, “was” for “was only”, “was 3” for “is 6”, “listed” for “provided”

C[C@H](CCC(=O)O)[C@H]1CC[C@H]2[C@@H]3CC[C@@H]4C[C@H](O)CC[C@]4(C)[C@H]3CC[C@]12C [Compound 1, Lithocholic acid, reference compound]
IC50 [1]: 38 µM
percent inhibition of collagenase [2]: 27%

C[C@H](CCC(=O)NCCC[N+](C)(C)CCCS(=O)(=O)[O-])[C@H]1CC[C@H]2[C@@H]3[C@H](O)C[C@@H]4C[C@H](O)CC[C@]4(C)[C@H]3C[C@H](O)[C@]12C [Compound 8, 3-[(3-cholamidopropyl)dimethylammonio)-1-propanesulfonate, reference compound]
inhibition at 10 µM [1]: 26%
percent inhibition of collagenase [2]: 22%

CC(C)C[C@H](NC(=O)CC[C@@H](C)[C@H]1CC[C@H]2[C@@H]3CC[C@@H]4C[C@H](O)CC[C@]4(C)[C@H]3CC[C@]12C)C(=O)NO [Compound 9, Lithocholyl-(L)-Leucine Hydroxamic Acid]
IC50 [1]: 1 µM
percent inhibition of collagenase [2]: 27%
IC50 [3]: 0.3 µM

CC(C)C[C@H](NC(=O)CC[C@@H](C)[C@H]1CC[C@H]2[C@@H]3[C@H](O)C[C@@H]4C[C@H](O)CC[C@]4(C)[C@H]3CC[C@]12C)C(=O)NO [Compound 10, Chenodeoxycholyl-(L)-Leucine Hydroxamic Acid]
IC50 [1]: 5 µM
percent inhibition of collagenase [2]: 8%
inhibition at 10 µM [3]: 27%

C[C@H](CCC(=O)NOCc1ccccc1)[C@H]1CC[C@H]2[C@@H]3[C@H](O)C[C@@H]4C[C@H](O)CC[C@]4(C)[C@H]3CC[C@]12C [Compound 12, Chenodeoxycholyl-O-Benzylhyroxamate]
inhibition at 10 µM ([1]; at 10 μM of compound): 5%
percent inhibition of collagenase [2]: 21%

C[C@H](CCC(=O)NO)[C@H]1CC[C@H]2[C@@H]3CC[C@@H]4C[C@H](O)CC[C@]4(C)[C@H]3CC[C@]12C [Compound 13, Lithocholylhydroxamic Acid]
inhibition at 10 µM ([1]; at 10 μM of compound): 56%
percent inhibition of collagenase [2]: 35%
IC50 [3]: 8 µM

C[C@H](CCC(=O)N[C@@H](Cc1ccccc1)C(=O)NO)[C@H]1CC[C@H]2[C@@H]3CC[C@@H]4C[C@H](O)CC[C@]4(C)[C@H]3CC[C@]12C [Compound 15, Lithocholyl-(L)-Phenylalanine Hydroxamic Acid]
inhibition at 10 µM ([1]; at 10 μM of compound): 85%
percent inhibition of collagenase [2]: 58%
inhibition at 10 µM [3]: 47%

C[C@H](CCC(=O)N[C@@H](Cc1ccccc1)C(=O)NO)[C@H]1CC[C@H]2[C@@H]3[C@H](O)C[C@@H]4C[C@H](O)CC[C@]4(C)[C@H]3CC[C@]12C [Compound 16, Chenodeoxycholyl-(L)-Phenylalanine Hydroxamic Acid]
inhibition at 10 µM ([1]; at 10 μM of compound): 80%
percent inhibition of collagenase [2]: 38%
inhibition at 10 µM [3]: 23%

CCOC(=O)[C@H](CS)NC(=O)[C@H](Cc1ccccc1)NC(=O)CC[C@@H](C)[C@H]1CC[C@H]2[C@@H]3CC[C@@H]4C[C@H](O)CC[C@]4(C)[C@H]3CC[C@]12C [Compound 19, Lithocholyl-(L)-Phenylalanyl-(L)-Cysteine Ethyl Ester]
IC50 [1]: 2 µM
percent inhibition of collagenase [2]: 33%
inhibition at 10 µM [3]: 47%

C[C@H](CCC(=O)N[C@@H](Cc1ccccc1)C(=O)NC1CCSC1=O)[C@H]1CC[C@H]2[C@@H]3CC[C@@H]4C[C@H](O)CC[C@]4(C)[C@H]3CC[C@]12C (stereo partly drawn) [Compound 20, Lithocholyl-Phenylalanylhomocysteine Thiolactone]
inhibition at 10 µM ([1]; at 10 μM of compound): 57%
percent inhibition of collagenase [2]: 57%
inhibition at 10 µM [3]: 30%
